Counter-ions that a name gives are not always drawn.
What was measured:
H. Pacifica = assay: Biofilm inhibition screen of TABLE 1, H. pacifica; assay type: cell-based, Halomonas pacifica; design: key: “X” denotes biofilm inhibition; details: 500 μM active compound, 24 hours
Method: (§1) Each compound was assayed for the ability to inhibit the formation of P. aeruginosa biofilms. […] We employed a standard crystal violet reporter assay to assess for the formation of biofilms. Briefly, P. aeruginosa strain PAO1 was allowed to form biofilms in a multi-well plate in the absence or presence of our compounds. Planktonic (or free growing) bacteria were then removed, wells washed vigorously, and crystal violet added. Crystal violet stains the remaining bacteria which, following ethanol solubilization, can be quantitated by spectrophotometry (A540).
(§2) Active compounds were tested for inhibition of biofilm formation using various bacterial strains. Assays were performed as reported above, with 500 μM active compound, and 24 hours. “X” denotes biofilm inhibition.

[1] = test system: P. aeruginosa strain PAO1; assay: Static biofilm inhibition assay (crystal violet), PAO1; assay type: cell-based, Pseudomonas aeruginosa; details: for IC50: inhibition of biofilm formation, crystal violet, 24 hours
Method: as §1
(§3) An overnight culture of the bacterial strain being screened against was subcultured at an OD600 of 0.1 into the media used (listed below with strain) and then pipetted into test tubes along with a predetermined concentration of our compound of interest. Test tubes were then poured into tilted Petri dishes and 100 μL of media, strain and compound were then transferred into 96-well PVC microtiter plates. These microtiter plates were then covered, wrapped in Saran™ Wrap polyethylene film (S.C. Johnson, Racine, Wis.) and allowed to incubate at 37° C. for 24 hours. After that time, the medium was discarded and the plates were thoroughly washed with water. The remaining biofilm that was formed during incubation was stained with 100 μL of a 0.1% crystal violet solution and allowed to incubate at room temperature for 30 minutes. After 30 minutes, the crystal violet was discarded and washed thoroughly again with water. The remaining crystal violet that had stained the biofilm in the inside walls of the 96-well PVC plates was solubilized with 200 μL of 95% ethanol. The quantification of biofilm formation was accomplished by transferring 125 μL of the ethanol solution into a polystyrene microtiter dish, which was read by spectrophotometry (A540). After the background has been subtracted from each row, a percent inhibition can be calculated by dividing the amount of crystal violet in wells that contained compound by the amount of crystal violet in wells that contained bacteria only. Each concentration reported during the course of this study was repeated two to five times with each of those biofilm inhibition assays being done in 6 replicates each.
(§4) An overnight culture of the wild type strain was subcultured at an OD600 of 0.10 into LBNS along with a predetermined concentration of the small molecule to be tested for biofilm inhibition. Samples were then aliquoted (100 μL) into the wells of a 96-well PVC microtiter plate. The microtiter dishes were covered and sealed before incubation under stationary conditions at 37° C. for 24 hours. After that time, the medium was discarded and the plates thoroughly washed with water. The wells were then inoculated with a 0.1% aqueous solution of crystal violet (100 μL) and allowed to stand at ambient temperature for 30 minutes. Following another thorough washing with water the remaining stain was solubilized with 200 μL of 95% ethanol. Biofilm inhibition was quantitated by measuring the OD540 for each well by transferring 125 μL of the ethanol solution into a fresh polystyrene microtiter dish for analysis.
(§5) To examine each compound's ability to inhibit the formation of Pseudomonas aeruginosa biofilms, PAO1 and PA14 were employed as the target bacterial strains using a crystal violet reporter assay. G. A. O'Toole, R. Kolter, Mol. Microbiol. 1998, 28, 449. All compounds were initially screened at 500 μM for anti-biofilm activity.
An overnight culture of the wild type strain was subcultured at an OD600 of 0.10 into LBNS along with a predetermined concentration of the small molecule to be tested for biofilm inhibition. Samples were then aliquoted (100 μL) into the wells of a 96-well PVC microtiter plate. The microtiter dishes were covered and sealed before incubation under stationary conditions at 37° C. for 24 hours, After that time, the medium was discarded and the plates thoroughly washed with water. […]

P. aeruginosa PA14 = assay: Static biofilm inhibition assay (crystal violet), PA14; assay type: cell-based, Pseudomonas aeruginosa; details: for inhibition at 500 µM: PA14, 24 h; for IC50: inhibition of biofilm formation, crystal violet, 24 hours
Method: as §3, §4, §5
as §4, with “for 24 hours, After that” for “for 24 hours. After that”, “violet (100 pt) and allowed” for “violet (100 μL) and allowed”

[2] = test system: planktonic P. aeruginosa PAO1; assay: Planktonic growth (growth curves, colony counts), PAO1; assay type: cell-based, Pseudomonas aeruginosa; details: growth curves and/or colony counts, presence vs absence of compound, at IC50 or as stated
From the text: To answer the question of whether the compounds were antibiotics or true inhibitors of biofilm formation, we tested the ability of both compounds to inhibit growth of planktonic P. aeruginosa. Growth was quantitated by measuring optical density at 600 nm. […]

[3] = test system: planktonic P. aeruginosa PA14; assay: Planktonic growth (growth curves, colony counts), PA14; assay type: cell-based, Pseudomonas aeruginosa; details: growth curves and/or colony counts, presence vs absence of compound, at IC50 or as stated
P. aeruginosa = assay: Biofilm inhibition screen of TABLE 1, P. aeruginosa; assay type: cell-based, Pseudomonas aeruginosa; design: key: “X” denotes biofilm inhibition; details: 500 μM active compound, 24 hours
Method: as §1, §2

V. Vulnificus = assay: Biofilm inhibition screen of TABLE 1, V. vulnificus; assay type: cell-based, Vibrio vulnificus; design: key: “X” denotes biofilm inhibition; details: 500 μM active compound, 24 hours
Method: as §1, §2

[4] = listed as oroidin 4, Hydrochloride
[5] = listed as oroidin 5, Hydrochloride
[6] = listed as oroidin (5), Hydrochloride
[7] = listed as sventrin 24, Hydrochloride
[8] = listed as sventrin (6), Hydrochloride

Compound: Nc1nc(CCCNC(=O)c2cc(Br)c(Br)[nH]2)c[nH]1 [drawing 74]
- H. Pacifica biofilm inhibition (H. Pacifica): X

Compound: Cl.Cn1c(C(=O)NCCc2c[nH]cn2)cc(Br)c1Br [Compound 40, 4,5-dibromo-1-methyl-pyrrole-2-carboxylic acid [2-(1H-imidazol-4-yl)-ethyl]-amide hydrochloride]
- inhibition at 500 µM ([1]; Pseudomonas aeruginosa, PAO1): 73%
- IC50 ([1]; Pseudomonas aeruginosa, PAO1): 277 ± 35 µM
- inhibition at 500 µM (P. aeruginosa PA14; Pseudomonas aeruginosa): 82%
- IC50 (P. aeruginosa PA14; Pseudomonas aeruginosa, PA14): 203 ± 25 µM
- microbicidal effect on PAO1 planktonic growth (in words) [2]: not inhibiting biofilm development through microbicidal activity
- microbicidal effect on PA14 planktonic growth (in words) [3]: not inhibiting biofilm development through microbicidal activity

Compound: Nc1nc(CCCNC(=O)c2cc(Br)c[nH]2)c[nH]1 [drawing 73]
- P. aeruginosa biofilm inhibition (P. aeruginosa): X
- H. Pacifica biofilm inhibition (H. Pacifica): X

Compound: Cl.Cn1c(C(=O)NCCCCc2c[nH]c(N)n2)cc(Br)c1Br [Compound 30, 4,5-dibromo-1-methyl-pyrrole-2-carboxylic acid [4-(2-amino-1H-imidazol-4-yl)-butyl]-amide hydrochloride]
- inhibition at 500 µM ([1]; Pseudomonas aeruginosa, PAO1): > 95%
- IC50 ([1]; Pseudomonas aeruginosa, PAO1): 150 ± 17 µM
- inhibition at 500 µM (P. aeruginosa PA14; Pseudomonas aeruginosa): > 95%
- IC50 (P. aeruginosa PA14; Pseudomonas aeruginosa, PA14): 126 ± 17 µM
- microbicidal effect on PAO1 planktonic growth (in words) [2]: no microbicidal activity
- microbicidal effect on PA14 planktonic growth (in words) [3]: no microbicidal activity

Compound: Nc1ncc2n1CCC2
- V. Vulnificus biofilm inhibition (V. Vulnificus): X

Compound: Nc1ncc(/C=C/CNC(=O)c2cc(Br)c(Br)[nH]2)[nH]1 [oroidin, Oroidin Hydrochloride, reference compound]
- inhibition at 500 µM ([1]; Pseudomonas aeruginosa, PAO1): > 95%
- IC50 ([1]; Pseudomonas aeruginosa, PAO1): 190 µM
- inhibition of PAO1 biofilm formation (in words) ([1]; screen at 500 μM): very potent inhibitors
- inhibition at 500 µM (P. aeruginosa PA14; Pseudomonas aeruginosa): > 95%
- IC50 (P. aeruginosa PA14; Pseudomonas aeruginosa, PA14): 166 µM
- inhibition of PA14 biofilm formation (in words) (P. aeruginosa PA14; screen at 500 μM): very potent inhibitors
- microbicidal effect on PAO1 planktonic growth (in words) [2, 4]: remained unchanged
- microbicidal effect on PAO1 planktonic growth (in words) [2, 5]: did not induce microbial cell death
- microbicidal effect on PAO1 planktonic growth (in words) [2, 6]: not due to a bactericidal effect
- microbicidal effect on PA14 planktonic growth (in words) [3, 4]: remained unchanged
- microbicidal effect on PA14 planktonic growth (in words) [3, 5]: did not induce microbial cell death
- microbicidal effect on PA14 planktonic growth (in words) [3, 6]: not due to a bactericidal effect

Compound: NC[C@H]1Cc2nc(N)[nH]c2C[C@@H]1CN
- P. aeruginosa biofilm inhibition (P. aeruginosa): X
- V. Vulnificus biofilm inhibition (V. Vulnificus): X
- H. Pacifica biofilm inhibition (H. Pacifica): X

Compound: NC[C@@H]1Cc2nc(N)[nH]c2C[C@@H]1CN
- P. aeruginosa biofilm inhibition (P. aeruginosa): X

Compound: Nc1nc(Cc2c[nH]c3ccccc23)c[nH]1
- P. aeruginosa biofilm inhibition (P. aeruginosa): X
- H. Pacifica biofilm inhibition (H. Pacifica): X

Compound: Cl.Cn1c(C(=O)NCCc2c[nH]c(N)n2)cc(Br)c1Br [Compound 27, 4,5-dibromo-1-methyl-pyrrole-2-carboxylic acid [2-(2-amino-1H-imidazol-4-yl)-ethyl]-amide hydrochloride]
- inhibition at 500 µM ([1]; Pseudomonas aeruginosa, PAO1): > 95%
- IC50 ([1]; Pseudomonas aeruginosa, PAO1): 165 ± 23 µM
- inhibition at 500 µM (P. aeruginosa PA14; Pseudomonas aeruginosa): > 95%
- IC50 (P. aeruginosa PA14; Pseudomonas aeruginosa, PA14): 224 ± 22 µM
- microbicidal effect on PAO1 planktonic growth (in words) [2]: no microbicidal activity
- microbicidal effect on PA14 planktonic growth (in words) [3]: no microbicidal activity

Compound: Nc1nc(Cc2c[nH]cn2)c[nH]1
- V. Vulnificus biofilm inhibition (V. Vulnificus): X
- H. Pacifica biofilm inhibition (H. Pacifica): X

Compound: Nc1nc(/C=C/CNC(=O)c2cc(Br)c(Br)[nH]2)c[nH]1
- H. Pacifica biofilm inhibition (H. Pacifica): X

Compound: NC1=N/C(=C\CCNC(=O)c2cc(Br)c(Br)[nH]2)C(=O)N1
- H. Pacifica biofilm inhibition (H. Pacifica): X

Compound: Cn1c(C(=O)NC/C=C/c2cnc(N)[nH]2)cc(Br)c1Br [sventrin, Sventrin Hydrochloride, reference compound]
- IC50 [1]: 75 ± 5 µM
- IC50 (P. aeruginosa PA14): 115 ± 3 µM
- microbicidal effect on PAO1 planktonic growth (in words) [2, 7]: did not induce microbial cell death
- microbicidal effect on PAO1 planktonic growth (in words) [2, 8]: not due to a bactericidal effect
- microbicidal effect on PA14 planktonic growth (in words) [3, 7]: did not induce microbial cell death
- microbicidal effect on PA14 planktonic growth (in words) [3, 8]: not due to a bactericidal effect

From US9084423B2, “Inhibition of bacterial biofilms with imidazole derivatives” (North Carolina State University, priority 2007, dated 2015)
